# Source: publication PMC7701510, “Identification of HN252 as a potent inhibitor of protein phosphatase PPM1B” (Journal of Cellular and Molecular Medicine, 2020)
# Target: T1, PPM1B (Homo sapiens, UniProt O75688)
# T1 construct: inferred from pET-28a vector and Ni-NTA purification; made in house; host or cells: Escherichia coli BL21
# T1 sequence (O75688 1-479): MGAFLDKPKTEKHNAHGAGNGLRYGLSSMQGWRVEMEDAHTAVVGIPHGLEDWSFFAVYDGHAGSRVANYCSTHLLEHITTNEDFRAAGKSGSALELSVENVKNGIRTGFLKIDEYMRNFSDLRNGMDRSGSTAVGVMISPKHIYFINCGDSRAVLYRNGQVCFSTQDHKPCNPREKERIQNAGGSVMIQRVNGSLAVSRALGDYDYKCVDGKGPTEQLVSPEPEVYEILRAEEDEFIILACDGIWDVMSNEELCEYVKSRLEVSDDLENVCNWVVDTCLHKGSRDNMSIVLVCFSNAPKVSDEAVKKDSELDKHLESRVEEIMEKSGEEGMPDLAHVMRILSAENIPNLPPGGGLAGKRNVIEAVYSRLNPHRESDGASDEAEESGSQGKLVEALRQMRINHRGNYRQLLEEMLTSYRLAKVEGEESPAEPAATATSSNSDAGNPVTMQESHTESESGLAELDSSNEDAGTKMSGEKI
# Assay: Fluorescence quenching assay (fluorescence titration)
# Assay type: binding
# Details: PPM1B 8 μM, 25°C, excitation 280 nm, emission 332 nm; read-out: dissociation constant Kd
# Experimental: The interaction between PPM1B recombinant proteins and compound HN252 was determined by fluorescence titration as previously described. ^20 PPM1B proteins were dialysed against PBS and incubated with different concentrations of HN252. The fluorescent quenching was conducted at 25°C, and fluorescence spectra were recorded by Cytation 5 Multi‐Mode Plate Reader (BioTek) using excitation at 280 nm and emission at 332 nm. The dissociation constant (Kd) of HN252 to PPM1B was calculated as previously described. ^20
compound,measurement,value
Nc1cc(-c2ccc(-c3ccc(O)c(O)c3)cc2)ccc1C(=O)O [HN252],Kd,42.3 ± 6.47 µM
